US20230413822A1, “ORAL CANINE FEED AND METHODS FOR C[…] INFESTATIONS IN A CANINE” (In the Bowl Animal Health, Inc., priority 2021, published 2023)
Several values for one entry are separate records, joined by “and”; a condition that tells them apart may be missing. Equal values may be shown once.

How the values were obtained:
[1] = Plasma concentration of mivorilaner in dogs given an oral liquid formulation daily (Example 1); type: in vivo; conditions: for Mivorilaner Concentration, Average: average of 6 canines, days 0-29; for Mivorilaner Concentration: individual canines, days 0-29, 0.75 mg/kg/day
From the text: Methods: A pool of 14 dogs are to be preliminarily infested with ˜100 unfed adult C. felis in order to produce dogs that can suitably sustain a reliable infestation rate, defined as approximately 50% fleas being live at the end of a 48-hour period. The 12 dogs with the highest live flea counts are to be selected for inclusion in the study. The dogs are to be divided into a control group and a treatment group.
The dogs are to be housed individually during the study period and are to be fed a commercial dry dog food ration with ad libitum access to water.
Each dog in the treatment group is to receive by mouth a liquid formulation of isoxazoline. The dosage of 0.75 mg/kg is to be administered to the dogs on each of days 0-29.
Dogs in the control group are not to receive isoxazoline or any other tick control treatment. Each dog in the treatment group is to be offered its daily ration (dry food) and the individual doses of liquid formulation are to be administered after the individual dog has eaten at least 25% of its total daily ration. After receiving the dose of isoxazoline, the dogs are to be allowed to continue eating. This mimics incorporating the isoxazoline in feed. Each dog in the treatment group and the control group is to be experimentally infested with 50 adult ticks on test days 5, 12, 19, 28 and 35. Comb counts for live and moribund attached ticks are to be conducted on days 7, 14, 21, 30 and 37.

[2] = Plasma concentration of mivorilaner in dogs fed medicated daily feed (Example 6); type: in vivo; set-up: unit not given here
From the text: Methods: A pool of dogs are to be preliminarily infested with ˜50 unfed adult R. sanguineus ticks in order to produce dogs that can suitably sustain a reliable infestation rate, defined as approximately 25% of attached ticks being live at the end of a 72-hour period. The 24 dogs with the highest live attached tick counts are to be selected for inclusion in the study. The 18 dogs with the highest live attached tick counts are to be randomly assigned to one of a control group and 2 treatment groups. The 6 dogs with the next highest live attached tick counts are to be assigned to a third treatment group.
The dogs are to be housed individually during the study period and are to have ad libitum access to water.
Each dog in a treatment group (test groups 2-4) is to receive a medicated daily feed from study days 0-49. The medicated daily feed is to be offered to the dogs for 1 hour on each of days 0-49 according to test groups listed in TABLE 7.
Sample results of the average plasma concentration of isoxazoline in a canine's blood at different dosage levels are shown in TABLE 8 and FIG. 9 for mivorilaner.

SMILES: O=C(CNC(=O)c1sc(C2=NO[C@@](c3cc(Cl)c(F)c(Cl)c3)(C(F)(F)F)C2)c2c1CCC2)NCC(F)F [Mivorilaner, 3-[(5S)-5-(3,5-dichloro-4-fluorophenyl)-5-(trifluoromethyl)-4,5-dihydroisoxazol-3-yl]-N-[2-[(2,2-difluoroethyl)amino]-2-oxoethyl]-5,6-dihydro-4H-cyclopenta[c]thiophene-1-carboxamide]
- Mivorilaner Concentration, Average ([1]; Day 3, 0.75 mg/kg/day oral): 674 ng/mL
- Mivorilaner Concentration, Average ([1]; Day 7, 0.75 mg/kg/day oral): 1449 ng/mL
- Mivorilaner Concentration, Average ([1]; Day 14, 0.75 mg/kg/day oral): 2105 ng/mL
- Mivorilaner Concentration, Average ([1]; Day 21, 0.75 mg/kg/day oral): 2725 ng/mL
- Mivorilaner Concentration, Average ([1]; Day 30, 0.75 mg/kg/day oral): 2628 ng/mL
- Mivorilaner Concentration, Average ([1]; Day 37, 0.75 mg/kg/day oral): 2017 ng/mL
- Mivorilaner Concentration ([1]; Day 3, 0.75 mg/kg/day oral): 556 ng/mL and 648 ng/mL and 579 ng/mL and 660 ng/mL
- Mivorilaner Concentration ([1]; Day 7, 0.75 mg/kg/day oral): 1330 ng/mL and 1620 ng/mL and 994 ng/mL and 1470 ng/mL
- Mivorilaner Concentration ([1]; Day 14, 0.75 mg/kg/day oral): 1990 ng/mL and 2530 ng/mL and 1560 ng/mL and 2120 ng/mL
- Mivorilaner Concentration ([1]; Day 21, 0.75 mg/kg/day oral): 2750 ng/mL and 2820 ng/mL and 2450 ng/mL and 2720 ng/mL
- Mivorilaner Concentration ([1]; Day 30, 0.75 mg/kg/day oral): 2570 ng/mL and 2890 ng/mL and 2320 ng/mL and 2600 ng/mL
- Mivorilaner Concentration ([1]; Day 37, 0.75 mg/kg/day oral): 2070 ng/mL and 2410 ng/mL and 1880 ng/mL and 2010 ng/mL
- average plasma concentration of isoxazoline in a canine's blood ([2]; Group 2-106 mg/kg feed (anticipated 1 mg/kg daily), Time 1 hr): 49.98
- average plasma concentration of isoxazoline in a canine's blood ([2]; Group 2-106 mg/kg feed (anticipated 1 mg/kg daily), Time 3 hr): 292.00
- average plasma concentration of isoxazoline in a canine's blood ([2]; Group 2-106 mg/kg feed (anticipated 1 mg/kg daily), Time 6 hr): 539.00
- average plasma concentration of isoxazoline in a canine's blood ([2]; Group 2-106 mg/kg feed (anticipated 1 mg/kg daily), Time 10 hr): 505.40
- average plasma concentration of isoxazoline in a canine's blood ([2]; Group 2-106 mg/kg feed (anticipated 1 mg/kg daily), Time 24 hr): 458.60
- average plasma concentration of isoxazoline in a canine's blood ([2]; Group 2-106 mg/kg feed (anticipated 1 mg/kg daily), Time 48 hr): 771.83
- average plasma concentration of isoxazoline in a canine's blood ([2]; Group 2-106 mg/kg feed (anticipated 1 mg/kg daily), Time 96 hr): 1570.50
- average plasma concentration of isoxazoline in a canine's blood ([2]; Group 2-106 mg/kg feed (anticipated 1 mg/kg daily), Time 168 hr): 2156.67
- average plasma concentration of isoxazoline in a canine's blood ([2]; Group 2-106 mg/kg feed (anticipated 1 mg/kg daily), Time 240 hr): 3003.33
- average plasma concentration of isoxazoline in a canine's blood ([2]; Group 2-106 mg/kg feed (anticipated 1 mg/kg daily), Time 336 hr): 3290.00
- average plasma concentration of isoxazoline in a canine's blood ([2]; Group 3-106 mg/kg feed (anticipated 1 mg/kg daily), Time 1 hr): 40.41
- average plasma concentration of isoxazoline in a canine's blood ([2]; Group 3-106 mg/kg feed (anticipated 1 mg/kg daily), Time 3 hr): 264.83
- average plasma concentration of isoxazoline in a canine's blood ([2]; Group 3-106 mg/kg feed (anticipated 1 mg/kg daily), Time 6 hr): 467.50
- average plasma concentration of isoxazoline in a canine's blood ([2]; Group 3-106 mg/kg feed (anticipated 1 mg/kg daily), Time 10 hr): 419.17
- average plasma concentration of isoxazoline in a canine's blood ([2]; Group 3-106 mg/kg feed (anticipated 1 mg/kg daily), Time 24 hr): 435.17
- average plasma concentration of isoxazoline in a canine's blood ([2]; Group 3-106 mg/kg feed (anticipated 1 mg/kg daily), Time 48 hr): 781.83
- average plasma concentration of isoxazoline in a canine's blood ([2]; Group 3-106 mg/kg feed (anticipated 1 mg/kg daily), Time 96 hr): 1596.67
- average plasma concentration of isoxazoline in a canine's blood ([2]; Group 3-106 mg/kg feed (anticipated 1 mg/kg daily), Time 168 hr): 2406.67
- average plasma concentration of isoxazoline in a canine's blood ([2]; Group 3-106 mg/kg feed (anticipated 1 mg/kg daily), Time 240 hr): 3026.67
- average plasma concentration of isoxazoline in a canine's blood ([2]; Group 3-106 mg/kg feed (anticipated 1 mg/kg daily), Time 336 hr): 3516.67
- average plasma concentration of isoxazoline in a canine's blood ([2]; Group 4-318 mg/kg feed (anticipated 3 mg/kg daily), Time 1 hr): 143.75
- average plasma concentration of isoxazoline in a canine's blood ([2]; Group 4-318 mg/kg feed (anticipated 3 mg/kg daily), Time 3 hr): 846.50
- average plasma concentration of isoxazoline in a canine's blood ([2]; Group 4-318 mg/kg feed (anticipated 3 mg/kg daily), Time 6 hr): 1265.67
- average plasma concentration of isoxazoline in a canine's blood ([2]; Group 4-318 mg/kg feed (anticipated 3 mg/kg daily), Time 10 hr): 1198.17
- average plasma concentration of isoxazoline in a canine's blood ([2]; Group 4-318 mg/kg feed (anticipated 3 mg/kg daily), Time 24 hr): 1021.17
- average plasma concentration of isoxazoline in a canine's blood ([2]; Group 4-318 mg/kg feed (anticipated 3 mg/kg daily), Time 48 hr): 2011.67
- average plasma concentration of isoxazoline in a canine's blood ([2]; Group 4-318 mg/kg feed (anticipated 3 mg/kg daily), Time 96 hr): 3928.33
- average plasma concentration of isoxazoline in a canine's blood ([2]; Group 4-318 mg/kg feed (anticipated 3 mg/kg daily), Time 168 hr): 6461.67
- average plasma concentration of isoxazoline in a canine's blood ([2]; Group 4-318 mg/kg feed (anticipated 3 mg/kg daily), Time 240 hr): 8696.67
